The subject of the experiment is CD2F1 mice, L1210 leukemia ip, survival T/C. The experiment in a line: NCI In Vivo Anticancer Drug Screen. Data for tumor model L1210 Leukemia (intraperitoneal) in CD2F1 (CDF1) mice. As to conditions: higher = longer survival. Summed up: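 Each value reflects a quotient of treated over vehicle control outcomes in mice with a transplanted tumor.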
[1] abbreviates: endpoint: mean survival time, dose: 12.5 mg/kg/injection, schedule: Q01DX005 (ip), vehicle: water.
The mark [2] stands for this setting: endpoint: mean survival time, dose: 25.0 mg/kg/injection, schedule: Q01DX005 (ip), vehicle: water.
Where [3] appears, read: endpoint: mean survival time, dose: 50.0 mg/kg/injection, schedule: Q01DX005 (ip), vehicle: water.
The mark [4] stands for this setting: endpoint: mean survival time, dose: 100.0 mg/kg/injection, schedule: Q01DX005 (ip), vehicle: water.
The mark [5] stands for this setting: endpoint: mean survival time, dose: 200.0 mg/kg/injection, schedule: Q01DX005 (ip), vehicle: water.
Setting [6] is: endpoint: mean survival time, dose: 100.0 mg/kg/injection, schedule: Q04DX003 (ip), vehicle: saline with Tween-80.
The mark [7] stands for this setting: endpoint: mean survival time, dose: 200.0 mg/kg/injection, schedule: Q04DX003 (ip), vehicle: saline with Tween-80.
The mark [8] stands for this setting: endpoint: mean survival time, dose: 400.0 mg/kg/injection, schedule: Q04DX003 (ip), vehicle: saline with Tween-80.
Where [9] appears, read: endpoint: mean survival time, dose: 100.0 mg/kg/injection, schedule: Q01DX009 (ip), vehicle: saline with Tween-80.
Setting [10] is: endpoint: mean survival time, dose: 200.0 mg/kg/injection, schedule: Q01DX009 (ip), vehicle: saline with Tween-80.
The mark [11] stands for this setting: endpoint: mean survival time, dose: 400.0 mg/kg/injection, schedule: Q01DX009 (ip), vehicle: saline with Tween-80.

Values joined by “and” are separate entries in the source; they are usually repeats but may differ in a detail not shown here. Identical values can stand only once. Inconclusive results and toxic doses are left out.

`CC(=O)OCC1OC(n2ncnc2CI)C(OC(C)=O)C(OC(C)=O)C1OC(C)=O` (stereo not given): the T/C is, setting by setting: (endpoint: median survival time, dose: 12.5 mg/kg/injection, schedule: Q01DX005 (ip), vehicle: distilled water + Tween-80) 105 % of control; (endpoint: median survival time, dose: 25.0 mg/kg/injection, schedule: Q01DX005 (ip), vehicle: distilled water + Tween-80) 105 % of control; (endpoint: median survival time, dose: 50.0 mg/kg/injection, schedule: Q01DX005 (ip), vehicle: distilled water + Tween-80) 96 % of control.

With `CCOC(=O)CCCSc1nn(C2OC(CO)C(O)C2O)c(=O)[nH]c1=O` (stereo not given), the T/C runs as follows: under setting [1], 101 % of control; under setting [2], 101 % of control; under setting [3], 101 % of control; under setting [4], 98 % of control; under setting [5], 104 % of control.

On to `O=C(Nc1ccccc1)Nc1nnnc2ccccc12`, for which the T/C under setting [6] was 101 % of control, the T/C under setting [7] is 90 % of control and the T/C under setting [8] is 101 % of control.

For `Cc1cccc(C)c1NC(=O)c1ccccc1O`, the T/C was 98 % of control under setting [9]; 101 % of control under setting [6]; 97 % of control under setting [10]; 96 % of control under setting [7]; 100 % of control under setting [11]; 102 % of control under setting [8].

Regarding `CCOC(=O)Nc1cc(NC(c2ccccc2)c2ccccc2)c([N+](=O)[O-])c(Cl)n1`, the T/C reads like this: (endpoint: mean survival time, dose: 100.0 mg/kg/injection, schedule: Q01DX001 (ip), vehicle: carboxymethylcellulose (CMC)) 95 % of control; (endpoint: mean survival time, dose: 200.0 mg/kg/injection, schedule: Q01DX001 (ip), vehicle: carboxymethylcellulose (CMC)) 93 % of control; (endpoint: mean survival time, dose: 400.0 mg/kg/injection, schedule: Q01DX001 (ip), vehicle: carboxymethylcellulose (CMC)) 91 % of control.

`C1=Nc2c(ccc3ccccc23)CS1`: the T/C is 91 % of control (endpoint: mean survival time, dose: 25.0 mg/kg/injection, schedule: Q04DX002 (ip), vehicle: other); 95 % of control (endpoint: mean survival time, dose: 50.0 mg/kg/injection, schedule: Q04DX002 (ip), vehicle: other); 100 % of control (endpoint: mean survival time, dose: 100.0 mg/kg/injection, schedule: Q04DX002 (ip), vehicle: other).

As to `O=[N+]([O-])c1ccccc1SSc1ccccc1[N+](=O)[O-]`, the T/C is 97 % of control under setting [6], 95 % of control under setting [7] and 104 % of control under setting [8].

Regarding `CO[C@@]12[C@@H]3N[C@@H]3CN1C1=C(C(=O)C(N3CCOCC3)=C(C)C1=O)[C@@H]2COC(N)=O`, the T/C was 118 % of control (endpoint: mean survival time, dose: 1.5 mg/kg/injection, schedule: Q01DX001 (ip), vehicle: distilled water + Tween-80); 123 % of control (endpoint: mean survival time, dose: 3.0 mg/kg/injection, schedule: Q01DX001 (ip), vehicle: distilled water + Tween-80); 115 % of control (endpoint: mean survival time, dose: 12.0 mg/kg/injection, schedule: Q01DX001 (ip), vehicle: distilled water + Tween-80).

Regarding `CCOC(=O)Nc1cccc(Cl)c1F`, the T/C is 91 % of control under setting [9], 97 % of control under setting [10] and 96 % of control under setting [11].

Take `COc1ccc2c3c(ccc2c1)C1CCC(=O)C1(C)CC3` (stereo not given): the T/C under setting [9] is 102 % of control, the T/C under setting [10] is 96 % of control and the T/C under setting [11] was 98 % of control.

Consider `CC(C)(C)OC(=O)Cc1ccccc1`, for which the T/C (endpoint: mean survival time, dose: 100.0 mg/kg/injection, schedule: Q01DX001 (ip), vehicle: saline with Tween-80) was 91 % of control; the T/C (endpoint: mean survival time, dose: 200.0 mg/kg/injection, schedule: Q01DX001 (ip), vehicle: saline with Tween-80) is 97 % of control; the T/C (endpoint: mean survival time, dose: 400.0 mg/kg/injection, schedule: Q01DX001 (ip), vehicle: saline with Tween-80) is 94 % of control.

As to `CSC(=S)N(C)/N=C/c1ccccc1O`, the T/C by setting is: under setting [9], 97 % of control; under setting [6], 102 % of control; under setting [10], 93 % of control; under setting [7], 92 % of control; under setting [11], 92 % of control; under setting [8], 100 % of control.

Regarding `NC(=O)c1ncn(C2OCC(O)C(O)C2O)c1N` (stereo not given), the T/C is 87 % of control and 95 % of control under setting [1]; 90 % of control and 93 % of control under setting [2]; 92 % of control under setting [3]; 98 % of control under setting [4]; 98 % of control and 95 % of control under setting [5]; 96 % of control (endpoint: median survival time, dose: 12.5 mg/kg/injection, schedule: Q01DX005 (ip), vehicle: water). For the same compound, the T/C runs as follows: (endpoint: median survival time, dose: 25.0 mg/kg/injection, schedule: Q01DX005 (ip), vehicle: water) 106 % of control; (endpoint: median survival time, dose: 50.0 mg/kg/injection, schedule: Q01DX005 (ip), vehicle: water) 102 % of control; (endpoint: median survival time, dose: 100.0 mg/kg/injection, schedule: Q01DX005 (ip), vehicle: water) 98 % of control; (endpoint: median survival time, dose: 200.0 mg/kg/injection, schedule: Q01DX005 (ip), vehicle: water) 108 % of control.

`CN(C)C1(Cc2ccccc2)c2ccccc2-c2ccc(Br)cc21` (stereo not given): the T/C is, setting by setting: under setting [6], 89 % of control; under setting [7], 87 % of control.

On to `S=c1[nH]nc(Nc2ccccc2Cl)s1`, for which the T/C runs as follows: (endpoint: mean survival time, dose: 100.0 mg/kg/injection, schedule: Q04DX003 (ip), vehicle: Klucel (hydroxypropylcellulose) (HPC)) 95 % of control; (endpoint: mean survival time, dose: 200.0 mg/kg/injection, schedule: Q04DX003 (ip), vehicle: Klucel (hydroxypropylcellulose) (HPC)) 95 % of control; (endpoint: mean survival time, dose: 400.0 mg/kg/injection, schedule: Q04DX003 (ip), vehicle: Klucel (hydroxypropylcellulose) (HPC)) 95 % of control.

On to `Cn1c(=O)c2[nH]c(NCc3ccccc3)nc2n(C)c1=O`, for which the T/C (endpoint: mean survival time, dose: 12.5 mg/kg/injection, schedule: Q01DX005 (ip), vehicle: distilled water + Tween-80) was 93 % of control; the T/C (endpoint: mean survival time, dose: 25.0 mg/kg/injection, schedule: Q01DX005 (ip), vehicle: distilled water + Tween-80) was 90 % of control; the T/C (endpoint: mean survival time, dose: 50.0 mg/kg/injection, schedule: Q01DX005 (ip), vehicle: distilled water + Tween-80) is 90 % of control; the T/C (endpoint: mean survival time, dose: 100.0 mg/kg/injection, schedule: Q01DX005 (ip), vehicle: distilled water + Tween-80) is 94 % of control; the T/C (endpoint: mean survival time, dose: 200.0 mg/kg/injection, schedule: Q01DX005 (ip), vehicle: distilled water + Tween-80) was 90 % of control.

For the compound `O=C(O)CSc1ccn(Cc2ccccc2)c1`, the T/C is, setting by setting: under setting [9], 94 % of control; under setting [6], 106 % of control; under setting [10], 88 % of control; under setting [7], 98 % of control; under setting [11], 88 % of control; under setting [8], 98 % of control.

Consider `C/C=C(\C)c1cc(=O)c2c(C)cc3c(c2o1)C(=O)c1c(O)c(C2CC(C)(N(C)C)C(OC(C)=O)C(C)O2)cc(C2CC(N(C)C)C(O)C(C)O2)c1C3=O` (stereo not given), for which the T/C is 103 % of control (endpoint: mean survival time, dose: 0.15 mg/kg/injection, schedule: Q01DX009 (ip), vehicle: saline); 98 % of control (endpoint: mean survival time, dose: 0.31 mg/kg/injection, schedule: Q01DX009 (ip), vehicle: saline); 115 % of control and 100 % of control (endpoint: mean survival time, dose: 0.62 mg/kg/injection, schedule: Q01DX009 (ip), vehicle: saline); 106 % of control and 111 % of control (endpoint: mean survival time, dose: 1.25 mg/kg/injection, schedule: Q01DX009 (ip), vehicle: saline); 105 % of control and 108 % of control (endpoint: mean survival time, dose: 2.5 mg/kg/injection, schedule: Q01DX009 (ip), vehicle: saline); 115 % of control (endpoint: mean survival time, dose: 5.0 mg/kg/injection, schedule: Q01DX009 (ip), vehicle: saline).

In the case of `CCC(=O)OCC[N+](C)(C)C`, the T/C is 100 % of control (endpoint: mean survival time, dose: 100.0 mg/kg/injection, schedule: Q01DX001 (ip), vehicle: saline); 96 % of control (endpoint: mean survival time, dose: 200.0 mg/kg/injection, schedule: Q01DX001 (ip), vehicle: saline); 96 % of control (endpoint: mean survival time, dose: 400.0 mg/kg/injection, schedule: Q01DX001 (ip), vehicle: saline).

`Cc1c(O)ccc([N+](=O)[O-])c1O`: the T/C runs as follows: (endpoint: mean survival time, dose: 12.5 mg/kg/injection, schedule: Q04DX003 (ip), vehicle: saline with Tween-80) 107 % of control; (endpoint: mean survival time, dose: 25.0 mg/kg/injection, schedule: Q04DX003 (ip), vehicle: saline with Tween-80) 102 % of control.

In the case of `NC1CCCCC1N.O=C([O-])c1cc(S(=O)(=O)Nc2cc(S(=O)(=O)[O-])cc3cc(S(=O)(=O)[O-])cc(O)c23)ccc1[O-].[Pt+4]`, the T/C was 124 % of control (endpoint: median survival time, dose: 0.39 mg/kg/injection, schedule: Q04DX003 (ip), vehicle: saline with Tween-80); 181 % of control (endpoint: median survival time, dose: 1.56 mg/kg/injection, schedule: Q04DX003 (ip), vehicle: saline with Tween-80); 253 % of control and 264 % of control (endpoint: median survival time, dose: 3.12 mg/kg/injection, schedule: Q04DX003 (ip), vehicle: saline with Tween-80); 289 % of control and 103 % of control (endpoint: median survival time, dose: 6.25 mg/kg/injection, schedule: Q04DX003 (ip), vehicle: saline with Tween-80).

The values are drawn from PubChem BioAssay AID256 (DTP/NCI, 2004).
